pIC50: −log10 of the molar value. Like-named read-outs stand apart in the source and are kept apart here.
Key:
M. mycetomatis MM55 = test: IC50 determination, 2-fold dilution series 16 to 0.03125 μM; type: cell-based, Madurella mycetomatis; conditions: Madurella mycetomatis, MM55, Table 3; benzimidazole carbamates; M. mycetomatis; read-out: IC50
[1] = test system: M. mycetomatis genome strain MM55; test: CLSI M38-A2 based in vitro susceptibility screening (XTT or resazurin), growth at fixed concentration; type: cell-based, Madurella mycetomatis; conditions: Madurella mycetomatis
[2] = mean of replicates, read-out: Percentage survival at 25um, 25 uM mean
[3] = replicate A, read-out: Percentage survival at 25um, 25 um A
[4] = replicate B, read-out: Percentage survival at 25um, 25 uM B
[5] = replicate C, read-out: Percentage survival at 25um, 25 uM C
[6] = mean of replicates, read-out: Percentage survival at 100um, 100 uM mean
[7] = replicate 1, read-out: Percentage survival at 100um, 100 uM A
[8] = replicate 2, read-out: Percentage survival at 100um, 100 uM A
[9] = replicate 3, read-out: Percentage survival at 100um, 100 uM A
[10] = mean of three replicates, read-out: Percentage survival at 25um, 25 uM mean
[11] = first replicate column, read-out: Percentage survival at 100um, 100 uM A
[12] = mean of three replicates, read-out: Percentage survival at 100um, 100 uM mean
[13] = second replicate column, read-out: Percentage survival at 100um, 100 uM A
[14] = third replicate column, read-out: Percentage survival at 100um, 100 uM A

CCCOc1ccc2nc(NC(=O)OC)[nH]c2c1 [MMV002163, Oxibendazole, reference compound]
pIC50 (M. mycetomatis MM55): 4.16

c1cnc(NCc2ccc(CNc3ncccn3)cc2)nc1 [MMV1580490]
activity at 25 µM ([1]; mean of replicates, MM55, read-out: Percentage survival at 25um, 25 uM mean): 71% | activity at 25 µM ([1]; replicate A, MM55, read-out: Percentage survival at 25um, 25 um A): 53.2% | activity at 25 µM ([1]; replicate B, MM55, read-out: Percentage survival at 25um, 25 uM B): 76.7% | activity at 25 µM ([1]; replicate C, MM55, read-out: Percentage survival at 25um, 25 uM C): 83.1% | activity at 100 µM ([1]; mean of replicates, MM55, read-out: Percentage survival at 100um, 100 uM mean): 66.3% | activity at 100 µM ([1]; replicate 1, MM55, read-out: Percentage survival at 100um, 100 uM A): 67.3% | activity at 100 µM ([1]; replicate 2, MM55, read-out: Percentage survival at 100um, 100 uM A): 32.6% | activity at 100 µM ([1]; replicate 3, MM55, read-out: Percentage survival at 100um, 100 uM A): 98.8%

O=c1cc(NCCCN[C@@H]2CCOc3c(Br)cc(Br)cc32)[nH]c2ccsc12 [MMV1578884]
activity at 25 µM [1, 2]: 96.9% | activity at 25 µM [1, 3]: 100% | activity at 25 µM [1, 4]: 95.5% | activity at 25 µM [1, 5]: 94.6% | activity at 100 µM [1, 6]: 88.3% | activity at 100 µM [1, 7]: 93% | activity at 100 µM [1, 8]: 86.8% | activity at 100 µM [1, 9]: 85.3%

N#CCN1C(=O)COc2cc(F)c(N3C(=O)c4ccccc4C3=O)cc21 [MMV1579785]
activity at 25 µM [1, 2]: 81.2% | activity at 25 µM [1, 3]: 78.3% | activity at 25 µM [1, 4]: 91.5% | activity at 25 µM [1, 5]: 73.8% | activity at 100 µM [1, 6]: 88.3% | activity at 100 µM [1, 7]: 83.8% | activity at 100 µM [1, 8]: 94.2% | activity at 100 µM [1, 9]: 87%

COc1ccc(C2CNC(=O)C2)cc1OC1CCCC1 (stereo not drawn) [MMV003738]
activity at 25 µM [1, 10]: 84.1% | activity at 25 µM [1, 3]: 73% | activity at 25 µM [1, 4]: 88.3% | activity at 25 µM [1, 5]: 90.9% | activity at 100 µM [1, 11]: 78.1% | activity at 100 µM [1, 12]: 75% | activity at 100 µM [1, 13]: 63% | activity at 100 µM [1, 14]: 84%

CCNC(=O)Nc1cc(-c2ccccc2)c(-c2cncc(C(=O)O)c2)cn1 [MMV1593534]
activity at 25 µM ([1]; mean, read-out: Percentage survival at 25um, 25 uM mean): 85.6% | activity at 25 µM [1, 3]: 94.2% | activity at 25 µM [1, 4]: 90.1% | activity at 25 µM [1, 5]: 72.5% | activity at 100 µM ([1]; mean, read-out: Percentage survival at 100um, 100 uM mean): 53.4% | activity at 100 µM ([1]; replicate (first column), read-out: Percentage survival at 100um, 100 uM A): 4.59% | activity at 100 µM ([1]; replicate (second column), read-out: Percentage survival at 100um, 100 uM A): 76.9% | activity at 100 µM ([1]; replicate (third column), read-out: Percentage survival at 100um, 100 uM A): 78.8%

CC(=O)Nc1cc(NS(=O)(=O)c2ccc(Cl)cc2)cc2c(Cl)n[nH]c12 [MMV1579779]
activity at 25 µM [1, 2]: 83.8% | activity at 25 µM [1, 3]: 80.2% | activity at 25 µM [1, 4]: 89.2% | activity at 25 µM [1, 5]: 82.1% | activity at 100 µM [1, 6]: 82.2% | activity at 100 µM [1, 7]: 78.5% | activity at 100 µM [1, 8]: 74.6% | activity at 100 µM [1, 9]: 93.4%

CC(C)(C)NC(=O)[C@@H]1C[C@@H]2CCCC[C@@H]2CN1C[C@@H](O)[C@H](Cc1ccccc1)NC(=O)[C@H](CC(N)=O)NC(=O)c1ccc2ccccc2n1 [MMV637879]
activity at 25 µM [1, 10]: 92.5% | activity at 25 µM [1, 3]: 98.2% | activity at 25 µM [1, 4]: 97.6% | activity at 25 µM [1, 5]: 81.5% | activity at 100 µM [1, 11]: 102% | activity at 100 µM [1, 12]: 93.3% | activity at 100 µM [1, 13]: 95.3% | activity at 100 µM [1, 14]: 82.8%
